Assay results taken from US9708336B2, “Metallo-beta-lactamase inhibitors” (priority 2014, dated 2017).
Read-outs that look alike come from different tables or passages of the source.

How the values were obtained:
NDM-1 = NDM-1 (Klebsiella pneumoniae, UniProt C7C422); assay: biochemical; type: biochemical; settings: read-out: NDM-1 IC50
IMP-1 = IMP-1 (Serratia marcescens, UniProt P52699); assay: biochemical; type: biochemical; settings: read-out: IMP-1 IC50
VIM-1 = VIM-1 (Pseudomonas aeruginosa (strain ATCC 15692 / DSM 22644 / CIP 104116 / JCM 14847 / LMG 12228 / 1C / PRS 101 / PAO1), UniProt A0A0F7KYQ8); assay: Enzyme activity: determination of IC50, fluorescence assay with CCF2-FA substrate (VIM-1); type: biochemical
[1] = tested on: Klebsiella pneumoniae expressing VIM-1 (IHMA599644); assay: Antibiotic potentiation activity: synergistic concentration (MITC95) with imipenem, OD600 growth; type: cell-based; settings: for Klebsiella pneumoniae expressing VIM-1 (IHMA 599644) MITC95: concentration giving 95% inhibition of bacterial growth; for Klebsiella pneumoniae MITC95: Klebsiella pneumoniae expressing VIM-1 (IHMA599644), 95% growth inhibition
Experimental: (§1) Antibiotic Potentiation Activity: Determination of Synergistic Concentration
(§2) The bacterial strains tested included the clinical strains Escherichia coli expressing NDM-1 (CLB30005, CLB30016), Serratia marcescens expressing IMP-1 (CL5741), and Klebsiella pneumoniae expressing VIM-1 (IHMA599644) Inhibitor activity was measured in the presence and absence of imipenem in a 384-well microplate.
(§3) The clinical strains CLB30016, CL5741 and IHMA599644 were grown on trypticase soy agar containing 5% sheep's blood. The clinical strain CLB30005 was grown on Mueller Hinton broth agar containing 8 ug/ml imipenem. The bacteria on agar plates were incubated at 35° C. with humidity overnight. The following day, individual colonies from each clinical strain were picked and resuspended in 5 ml saline to attain an OD600 of 0.14, 0.11, 0.15 and 0.13, for CLB30005, CLB30016, CL5741 and IHMA599644, respectively. These were further diluted 1:100 into 1.1×CAMHB and used to inoculate the test wells as described below.
(§4) Imipenem in 10 mM 3-(N-morpholino)propanesulfonic acid (MOPS, pH 7) was stored in single use aliquots at −80° C. […] On the day of the assay, 4 μl of antibiotic was added to 45 ul of bacteria followed by 1 μl of test compound and mixed by pipetting and with an orbital shaker. The concentration of antibiotic used in the assay was 4 μg/ml, or optionally 1 μg/ml. Microplates were covered and incubated at 35° C. for 22 hours to 24 hours. At the end of the incubation, absorbance was determined using a spectrophotometer.

[2] = tested on: Escherichia coli expressing NDM-1 (CLB30016); assay: as above; type: cell-based; settings: for Escherichia coli expressing NDM-1 (CLB 30016) MITC95: concentration giving 95% inhibition of bacterial growth; for Escherichia coli MITC95: Escherichia coli expressing NDM-1 (CLB30016), 95% growth inhibition
Experimental: as §1, §2, §3, §4

[3] = tested on: Serratia marcescens expressing IMP-1 (CL5741); assay: as above; type: cell-based; settings: for Serratia marcescens expressing IMP-1 (CL5741) MITC95: concentration giving 95% inhibition of bacterial growth; for Serratia marcescens MITC95: Serratia marcescens expressing IMP-1 (CL5741), 95% growth inhibition
Experimental: as §1, §2, §3, §4

[4] = fluorescence assay with CCF2-FA substrate
[5] = fluorescence assay with CCF2-FA substrate; read-out: VIM-1 IC50
[6] = NDM-1 enzyme, CCF2-FA fluorescence assay
[7] = IMP-1 enzyme, CCF2-FA fluorescence assay

Chain of IMP-1 (P52699 whole entry, looked up): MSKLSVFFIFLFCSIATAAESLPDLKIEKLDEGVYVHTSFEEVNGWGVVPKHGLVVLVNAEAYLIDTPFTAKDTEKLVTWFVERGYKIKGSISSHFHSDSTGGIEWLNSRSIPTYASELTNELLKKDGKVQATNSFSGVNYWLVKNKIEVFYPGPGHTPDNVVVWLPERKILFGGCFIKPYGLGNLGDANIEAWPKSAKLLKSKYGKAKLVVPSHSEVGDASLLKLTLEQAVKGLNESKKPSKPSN
Chain of NDM-1 (C7C422 whole entry, looked up, species assumed): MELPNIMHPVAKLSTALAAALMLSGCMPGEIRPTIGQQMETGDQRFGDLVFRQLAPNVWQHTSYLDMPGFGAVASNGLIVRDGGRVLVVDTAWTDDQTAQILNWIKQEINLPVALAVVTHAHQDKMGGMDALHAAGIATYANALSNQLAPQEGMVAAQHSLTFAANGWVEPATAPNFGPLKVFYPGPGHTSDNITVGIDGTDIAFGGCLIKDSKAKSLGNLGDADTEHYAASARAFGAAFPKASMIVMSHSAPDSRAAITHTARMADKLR

## NS(=O)(=O)c1cccc(-c2ccc(C(=O)NC3CCOC3)cc2)c1-c1nn[nH]n1 (centres unmarked) [Example 2, 3′-sulfamoyl-N-(tetrahydrofuran-3-yl)-2′-(2H-tetrazol-5-yl)biphenyl-4-carboxamide]
NDM-1; [4]
  IC50: 52.3 nM
IMP-1; [4]
  IC50: 262 nM
VIM-1; [5]
  IC50: 1910 nM

## NS(=O)(=O)c1cccc(-c2ccc(CO)cc2)c1-c1nnn[nH]1 [Example 26, 4′-(hydroxymethyl)-2-(1H-tetrazol-5-yl)biphenyl-3-sulfonamide]
NDM-1; [4]
  IC50: 2.43 nM
IMP-1; [4]
  IC50: 46.2 nM
VIM-1; [5]
  IC50: 58.4 nM
[1]
  Klebsiella pneumoniae expressing VIM-1 (IHMA 599644) MITC95: 50 µM

## NS(=O)(=O)c1cccc(-c2ccc3ncnn3c2)c1-c1nnn[nH]1 [Example 111, 3-([1,2,4]triazolo[1,5-a]pyridin-6-yl)-2-(1H-tetrazol-5-yl)benzenesulfonamide]
[2]
  Escherichia coli expressing NDM-1 (CLB 30016) MITC95: 1.172 µM
[1]
  Klebsiella pneumoniae expressing VIM-1 (IHMA 599644) MITC95: 18.75 µM
[3]
  Serratia marcescens expressing IMP-1 (CL5741) MITC95: 9.375 µM

## CN1CCN(c2cc(-c3cccc(S(N)(=O)=O)c3-c3nnn[nH]3)ccn2)CC1 [Example 116, 3-(2-(4-methylpiperazin-1-yl)pyridin-4-yl)-2-(1H-tetrazol-5-yl)benzenesulfonamide]
NDM-1; [4]
  IC50: 5.43 nM
IMP-1; [4]
  IC50: 226 nM
[2]
  Escherichia coli expressing NDM-1 (CLB 30016) MITC95: 1.563 µM
[1]
  Klebsiella pneumoniae expressing VIM-1 (IHMA 599644) MITC95: 200 µM
[3]
  Serratia marcescens expressing IMP-1 (CL5741) MITC95: 9.375 µM

## NS(=O)(=O)c1cccc(-c2ccc3nonc3c2)c1-c1nnn[nH]1 [Example 130, 3-(benzo[c][1,2,5]oxadiazol-5-yl)-2-(1H-tetrazol-5-yl)benzenesulfonamide]
NDM-1; [4]
  IC50: 10.6 nM
IMP-1; [4]
  IC50: 267 nM
[2]
  Escherichia coli expressing NDM-1 (CLB 30016) MITC95: 1.172 µM
[1]
  Klebsiella pneumoniae expressing VIM-1 (IHMA 599644) MITC95: 37.5 µM
[3]
  Serratia marcescens expressing IMP-1 (CL5741) MITC95: 9.375 µM

## NS(=O)(=O)c1cccc(C2=CCS(=O)(=O)CC2)c1-c1nnn[nH]1 [Example 141, 3-(1,1-dioxido-3,6-dihydro-2H-thiopyran-4-yl)-2-(1H-tetrazol-5-yl)benzenesulfonamide]
NDM-1; [4]
  IC50: 61.5 nM
IMP-1; [4]
  IC50: 2340 nM
[2]
  Escherichia coli expressing NDM-1 (CLB 30016) MITC95: 0.7813 µM
[1]
  Klebsiella pneumoniae expressing VIM-1 (IHMA 599644) MITC95: 200 µM
[3]
  Serratia marcescens expressing IMP-1 (CL5741) MITC95: 37.5 µM

## NS(=O)(=O)c1cccc(CCc2cccnc2)c1-c1nnn[nH]1 [Example 143, 3-(2-pyridin-3-ylethyl)-2-(1H-tetrazol-5-yl)benzenesulfonamide]
NDM-1; [4]
  IC50: 20.7 nM
IMP-1; [4]
  IC50: 98.5 nM
[2]
  Escherichia coli expressing NDM-1 (CLB 30016) MITC95: 0.7813 µM
[1]
  Klebsiella pneumoniae expressing VIM-1 (IHMA 599644) MITC95: 200 µM
[3]
  Serratia marcescens expressing IMP-1 (CL5741) MITC95: 4.688 µM

## NS(=O)(=O)c1cccc(C2CCN(C(=O)C3(c4ccccc4)CC3)CC2)c1-c1nn[nH]n1 [Example 176, 3-(1-(1-phenylcyclopropanecarbonyl)piperidin-4-yl)-2-(2H-tetrazol-5-yl)benzenesulfonamide]
NDM-1; [4]
  IC50: 6.43 nM
IMP-1; [4]
  IC50: 72.8 nM
VIM-1; [5]
  IC50: 148 nM

## NS(=O)(=O)c1nccc(N2CCC(CN3CCOCC3)CC2)c1-c1nnn[nH]1 [Example 224, 4-[4-(morpholin-4-ylmethyl)piperidin-1-yl]-3-(1H-tetrazol-5-yl)pyridine-2-sulfonamide]
NDM-1; [4]
  IC50: 247 nM
[2]
  Escherichia coli expressing NDM-1 (CLB 30016) MITC95: 4.688 µM
[1]
  Klebsiella pneumoniae expressing VIM-1 (IHMA 599644) MITC95: 200 µM
[3]
  Serratia marcescens expressing IMP-1 (CL5741) MITC95: 18.75 µM

## NS(=O)(=O)c1nccc(NCc2ccccc2)c1-c1nnn[nH]1 [Example 235, 4-(benzylamino)-3-(1H-tetrazol-5-yl)pyridine-2-sulfonamide]
NDM-1; [4]
  IC50: 142 nM
IMP-1; [4]
  IC50: 3440 nM
[2]
  Escherichia coli expressing NDM-1 (CLB 30016) MITC95: 12.5 µM
[1]
  Klebsiella pneumoniae expressing VIM-1 (IHMA 599644) MITC95: >200 µM
[3]
  Serratia marcescens expressing IMP-1 (CL5741) MITC95: 200 µM

## Cc1cc(-c2nnn[nH]2)c(S(N)(=O)=O)cc1C [Example 252, 4,5-Dimethyl-2-(2H-tetrazol-5-yl)benzenesulfonamide]
NDM-1; [6]
  IC50: 591 nM
IMP-1; [7]
  IC50: 112000 nM
VIM-1; VIM-1 enzyme, CCF2-FA fluorescence assay; read-out: VIM-1 IC50
  IC50: 156000 nM

## NS(=O)(=O)c1c(C(F)(F)F)ccc(-c2ccc(C3CCNCC3)cc2)c1-c1nn[nH]n1 [Example 269, 4′-(piperidin-4-yl)-2-(2H-tetrazol-5-yl)-4-(trifluoromethyl)-[1,1′-biphenyl]-3-sulfonamide]
NDM-1; [6]
  IC50: 1.21 nM
IMP-1; [7]
  IC50: 1.43 nM
[2]
  Escherichia coli MITC95: 0.7383 µM
[1]
  Klebsiella pneumoniae MITC95: 1.969 µM
[3]
  Serratia marcescens MITC95: 0.3125 µM

## CN1[C@@H]2CC[C@H]1CC(NCc1ccc(-c3cccc(S(N)(=O)=O)c3-c3nnn[nH]3)cc1)C2 (stereo partly drawn) [Example 366, 4′-({[(3-endo)-8-methyl-8-azabicyclo[3.2.1]oct-3-yl]amino}methyl)-2-(1H-tetrazol-5-yl)biphenyl-3-sulfonamide]
NDM-1; [6]
  IC50: 18.2 nM
IMP-1; [7]
  IC50: 257 nM
[2]
  Escherichia coli MITC95: 1.172 µM
[1]
  Klebsiella pneumoniae MITC95: 150 µM
[3]
  Serratia marcescens MITC95: 3.125 µM

## CC(C(=O)O)N(C)Cc1ccc(-c2cccc(S(N)(=O)=O)c2-c2nnn[nH]2)cc1 (centres unmarked) [Example 367, N-methyl-N-{[3′-sulfamoyl-2′-(1H-tetrazol-5-yl)biphenyl-4-yl]methyl}alanine]
NDM-1; [6]
  IC50: 7.53 nM
IMP-1; [7]
  IC50: 60.3 nM
[2]
  Escherichia coli MITC95: 3.125 µM
[1]
  Klebsiella pneumoniae MITC95: 200 µM
[3]
  Serratia marcescens MITC95: 3.125 µM

## CN1C2CCC1CC(NCc1ccc(-c3cccc(S(N)(=O)=O)c3-c3nnn[nH]3)cc1)C2 (centres unmarked) [Example 370, 4′-{[(8-methyl-8-azabicyclo[3.2.1]oct-3-yl)amino]methyl}-2-(1H-tetrazol-5-yl)biphenyl-3-sulfonamide]
NDM-1; [6]
  IC50: 7.35 nM
IMP-1; [7]
  IC50: 45.8 nM
[2]
  Escherichia coli MITC95: 1.563 µM
[1]
  Klebsiella pneumoniae MITC95: 200 µM
[3]
  Serratia marcescens MITC95: 1.563 µM

## NS(=O)(=O)c1cccc(-c2nc(-c3ccncc3)cs2)c1-c1nnn[nH]1 [Example 407, 3-[4-(4-pyridyl)thiazol-2-yl]-2-(1H-tetrazol-5-yl)benzenesulfonamide]
NDM-1; [6]
  IC50: 25.8 nM
IMP-1; [7]
  IC50: 115 nM
[2]
  Escherichia coli MITC95: 3.125 µM
[1]
  Klebsiella pneumoniae MITC95: >200 µM
[3]
  Serratia marcescens MITC95: 3.125 µM

## NC1CCC(Cc2ccc(-c3ccc(C4CCNCC4)cc3)c(-c3nn[nH]n3)c2S(N)(=O)=O)CC1 (centres unmarked) [Example 455, 4-(((1s,4s)-4-aminocyclohexyl)methyl)-4′-(piperidin-4-yl)-2-(2H-tetrazol-5-yl)-[1,1′-biphenyl]-3-sulfonamide]
IMP-1; [7]
  IC50: 6.29 nM
[2]
  Escherichia coli MITC95: 0.5859 µM
[1]
  Klebsiella pneumoniae MITC95: 1.563 µM
[3]
  Serratia marcescens MITC95: 0.3906 µM

## NC1CCC(Cc2ccc(-c3ccc(C4CCNCC4)cc3)c(-c3nn[nH]n3)c2S(N)(=O)=O)CC1 (centres unmarked) [Example 463, 4-(((1r,4r)-4-aminocyclohexyl)methyl)-4′-(piperidin-4-yl)-2-(2H-tetrazol-5-yl)-[1,1′-biphenyl]-3-sulfonamide]
IMP-1; [7]
  IC50: 6.58 nM
[2]
  Escherichia coli MITC95: 0.7813 µM
[1]
  Klebsiella pneumoniae MITC95: 0.7813 µM
[3]
  Serratia marcescens MITC95: 0.1953 µM

## NS(=O)(=O)c1c(C(F)(F)F)ccc(-c2ccc3nccn3c2)c1-c1nnn[nH]1 [Example 481, 3-imidazo[1,2-a]pyridin-6-yl-2-(1H-tetrazol-5-yl)-6-(trifluoromethyl)benzenesulfonamide]
NDM-1; [6]
  IC50: 1.46 nM
IMP-1; [7]
  IC50: 7.11 nM
[2]
  Escherichia coli MITC95: 0.125 µM
[1]
  Klebsiella pneumoniae MITC95: 1.922 µM
[3]
  Serratia marcescens MITC95: 0.543 µM

## NS(=O)(=O)c1c(C(F)(F)F)ccc(-c2ccc3nccn3c2)c1-c1nnn[nH]1 [Example 484, 3-(Imidazo[1,2-a]pyridin-6-yl)-2-(1H-tetrazol-5-yl)-6-(trifluoromethyl)benzenesulfonamide]
NDM-1; [6]
  IC50: 1.22 nM
IMP-1; [7]
  IC50: 6.58 nM
[2]
  Escherichia coli MITC95: 0.25 µM
[1]
  Klebsiella pneumoniae MITC95: 1.708 µM
[3]
  Serratia marcescens MITC95: 0.3828 µM

## NS(=O)(=O)c1c(C(F)(F)F)ccc(N2CC3(CCNCC3)C2)c1-c1nnn[nH]1 [Example 782]
VIM-1; read-out: VIM-1 IC50; fluorescence assay with CCF2-FA substrate
  IC50: 9.5 nM
